Data set [1] concerns multi-drug resistant sarcoma cell line MES-SA-Dx5. The data set can be described thus: Cell growth assay on MES-SA-Dx5 cells. The class given is cell-based. The conditions noted are these: MES-SA-Dx5. The protocol:
(§1) Compositions were tested on CHOP-resistant G3 NHL cells that had been cultivated in RPMI medium for five days. Prior to assay, the cells were counted by haemocytometer and cell concentration standardized to 625,000 cells/ml. Test drugs were solubilized in 100% DMSO and then diluted to final assay concentration with 0.1M phosphate buffered saline (PBS) and a final DMSO concentration of 0.5%. Cells were added to assay plates containing the test drugs (rifabutin+148 ng/ml, 74 ng/ml, 37 ng/ml, or 0 ng/ml doxorubicin) and allowed to incubate for 96 hours at 37° C. and 5% CO2. The metabolic dye rezasurin was added to the wells of the assay plate at a final concentration of 20 μg/ml and the plates were incubated for an additional 24 hours. The plates were then read in a BMG Polarstar plate reader at wavelength (573-605) and the data plotted as OD versus increasing dilutions (i.e. decreasing total amounts) of rifabutin derivative concentration.
(§2) In these experiments, the following cell lines were used: CHOP-resistant NHL cell line G3, CHOP-sensitive NHL cell line CRL2631, the multi-drug resistant sarcoma cell line MES-SA-Dx5; multi-drug-resistant breast cancer cell line MDA-MB-231, multi-drug resistant ovarian carcinoma cell line SK-OV3, multi-drug resistant ovarian cancer cell line NCI/ADR-RES, drug-sensitive ovarian cancer cell line OVCAR-5, and multi-drug resistant ovarian cancer cell line OVCAR-3.
(§3) Additional cell lines used include: ovarian cancer OVCAR-8, T lymphoblastoid leukemia MOLT-4, dexamethasone-resistant multiple myeloma MM.1R, myeloid leukemia cells HL-60, osteosarcoma cells U-2 OS, and myeloma RPMI 8226.

In data set [2] the test system is T lymphoblastoid leukemia MOLT-4. Nature of the data set: Cell growth assay on MOLT-4 cells. It counts as cell-based. As for the experimental part:
as §1, §3

The subject of data set [3] is primary human fibroblasts. The conditions noted are these: with and without 2 uM Dox.
Data set [4] concerns drug-sensitive ovarian cancer cell line OVCAR-5. Nature of the data set: Cell growth assay on OVCAR-5 cells. The class given is cell-based. Particulars: OVCAR-5, ovarian carcinoma. As for the experimental part:
as §1, §2, §3

Another data set has as its system lymphoma cell line G3. The data set can be described thus: Cell growth assay (resazurin fluorescence) on CHOP-resistant G3 NHL cells. The class given is cell-based, human. The protocol:
as §1
On the technique in general: Alamar Blue is a resazurin reagent that responds to reducing activity.

Data set [5] has as its system multi-drug resistant ovarian carcinoma cell line SK-OV3. Nature of the data set: Cell growth assay on SK-OV3 cells. Particulars: for IC50: Homo sapiens, SK-OV-3. The class given is cell-based, human. The protocol: as §1
(§4) In these experiments, the following cell lines were used: CHOP-resistant NHL cell line G3, CHOP-sensitive NHL cell line CRL2631, the multi-drug resistant sarcoma cell line MES-SA-Dx5; multi-drug-resistant breast cancer cell line MDA-MB-231, multi-drug resistant ovarian carcinoma cell line SK-OV3, multi-drug resistant ovarian cancer cell line NCI/ADR-RES, drug-sensitive ovarian cancer cell line OVCAR-5, and multi-drug resistant ovarian cancer cell line OVCAR-3. […]

The subject of data set [6] is multi-drug resistant ovarian cancer cell line OVCAR-3. The data set can be described thus: Cell growth assay on OVCAR-3 cells. The class given is cell-based. The conditions noted are these: OVCAR-3; for IC50: Homo sapiens. The protocol:
as §1, §4

Data set [7] has as its system dexamethasone-resistant multiple myeloma MM.1R. The data set can be described thus: Cell growth assay on MM.1R cells. The class given is cell-based. The conditions noted are these: for Fold increase in potency: with vs without Rifabutin. The protocol: as §1, §3
Data set [8] concerns myeloid leukemia cells HL-60. The data set can be described thus: Cell growth assay on HL-60 cells. Particulars: for IC50: Homo sapiens. It counts as cell-based. The protocol: as §1, §3
The next data set relates to myeloma RPMI 8226. The data set can be described thus: Cell growth assay on RPMI 8226 cells. The class given is cell-based. The conditions noted are these: for IC50: Homo sapiens. The protocol: as §1, §3
The next data set concerns calcium in G3 cells. Nature of the data set: Calcium mobilization (Fluo-4AM, flow cytometry). The class given is cell-based, human. Particulars: Dox-resistant cells (G3R, 10R, WSUR), 10 uM, 2 hrs, FIG. 41B/41C. As for the experimental part: MDR/P-gp activity is closely associated with calcium status in the cell, so calcium modulators were tested for effects on ROS. […] Relatively Dox-sensitive lymphoma (CRL2631, 10S, WSU) and ovarian carcinoma (OVCAR8) and more Dox-resistant lymphoma (G3R,10R, WSUR) and ovarian carcinoma (ADR) were treated with 10 uM […] for 2 hrs. […] Cells were co-stained with the cell-permeable red fluorescent ROS indicator, CellROX, and cell-permeable green fluorescent calcium indicator, Fluo-4AM, and then subjected to flow cytometry to quantitate changes in ROS and calcium levels.
(§5) All samples were analyzed at the same time in flow cytometry.
For orientation: A change in cytosolic calcium serves as a functional read-out for many receptors and channels.

In data set [9] the test system is ROS in ADR-RES ovarian cells. The data set can be described thus: Intracellular ROS (CellROX, flow cytometry) in ADR-RES cells. It counts as cell-based. Particulars: 10 uM, 2 hrs. The text has this: (§6) Cells were then stained with the fluorescent ROS indicator, CellROX, and subjected to flow cytometry to quantitate total intracellular ROS.
A general note: Flow cytometry measures light scatter and fluorescence of single cells or particles in a stream.

Data set [10] relates to ROS in OVCAR8 ovarian cells. Nature of the data set: Intracellular ROS (CellROX, flow cytometry) in OVCAR8 cells. It counts as cell-based. The conditions noted are these: 10 uM, 2 hrs, degree much less than in resistant lines.
Source text: as §6

The test system of a further data set is ROS in G3 lymphoma cells. The data set can be described thus: Intracellular ROS (CellROX, flow cytometry) in G3 cells. The class given is cell-based, human. Particulars: 10 uM, 2 hrs. The protocol:
as §6
The electron transport chain (ETC) is known to be a primary generator of ROS in the cell. Most of the ROS is generated by Complexes I and III of the ETC Inhibition of Complex I results in electrons piling up and leaking to react with oxygen to produce ROS.
as §5

The test system of another data set is ovarian cancer OVCAR-8. The data set can be described thus: Cell growth assay on OVCAR-8 cells. It counts as cell-based. Particulars: for IC50: Homo sapiens. As for the experimental part: as §1, §3
In data set [11] the test system is osteosarcoma cells U-2 OS. Nature of the data set: Cell growth assay on U-2 OS cells. It counts as cell-based. The conditions noted are these: for IC50: Homo sapiens, U2OS. As for the experimental part: as §1, §3
Setting [12] is: therapeutic drug alone, read-out: IC50.
Where [13] appears, read: therapeutic drug with Rifabutin, read-out: IC50 (μM) with Rifabutin.

The record followed here is patent US20150017673A1, “COMPOSITIONS AND METHODS FOR DRUG-SENSITIZATION OR INHIBITION OF A CANCER CELL” (priority 2012, published 2015).

Read-outs that look alike come from different tables or passages of the source. Numbered stars: 1 amine (or outer) side, 2 acyl side, 3 side chain; on linkers, the order of the positions; unused ones are H or OH. Bridge positions count the residues as written; N and C are the ends. Square brackets hold non-standard residues; d marks the D form. Peptide text beside a SMILES is read from it. I, II: the chains in the order shown. Actinocin(9to1) = Cc1c2oc3c(C)ccc(C(=O)[*:1])c3nc-2c(C(=O)[*:2])c(N)c1=O; NMeV = CN[C@H](C(=O)O)C(C)C; Sar = CNCC(=O)O

A word on the IC50: it is the concentration needed to halve the response being measured. For `Cc1c2oc3c(C)ccc(C(=O)N[C@@H]4C(=O)N[C@H](C(C)C)C(=O)N5CCC[C@H]5C(=O)N(C)CC(=O)N(C)[C@@H](C(C)C)C(=O)O[C@@H]4C)c3nc-2c(C(=O)N[C@@H]2C(=O)N[C@H](C(C)C)C(=O)N3CCC[C@H]3C(=O)N(C)CC(=O)N(C)[C@@H](C(C)C)C(=O)O[C@@H]2C)c(N)c1=O` [Actinomycin D, actinomycin D] (I: T[dV]P[Sar][NMeV] / II: T[dV]P[Sar][NMeV]; ester I:1-I:C, II:1-II:C; linker I:N-II:N via Actinocin(9to1)), the IC50 in data set [1] (setting [12]) is 0.03 µM; in data set [1] (setting [13]) it was 0.01 µM; in data set [2] (setting [12]), 0.04 µM; in data set [2] (setting [13]) it was less than 0.008 µM. Moreover, the “Fold increase in potency” value is listed as 3 fold in data set [1] (with vs without Rifabutin) and greater than 5 fold in data set [2] (with vs without Rifabutin).

Regarding `COC1C=COC2(C)Oc3c(C)c(O)c4c(c3C2N)C2=NC3(CCN(C(=O)OCC(C)C)CC3)NC2=C(NC(=O)C(C)=CC=CC(C)C(O)C(C)C(O)C(C)C(OC(C)=O)C1C)C4=O` (centres unmarked) [RTI-176, 11-deoxy-11-amino-4-deoxy-3,4[2-spiro-[1-(isobutyloxycarbonyl)-piperidin-4-yl]]-(1H)-imidazo-(2,5-dihydro)rifamycin S], the “comparative cytotoxicity to normal cells” value in data set [3] is “not toxic to normal cells”. The “Magnitude of potentiation in combination with doxorubicin” value in data set [4] is listed as “+ (potentiation between 1.2 to 2.0 fold increase)”; with lymphoma cell line G3 (G3, lymphoma B cells), “+++ (potentiation greater than 5 fold increase)”; in data set [5] (SK-OV3, ovarian carcinoma), “+++ (potentiation greater than 5 fold increase)”. For the same compound, the IC50 is greater than 64 µM in the data set on lymphoma cell line G3 (analog alone, lymphoma cell line G3, read-out: IC50) and 0.45 µM in the data set on lymphoma cell line G3 (with 1 μM doxorubicin, lymphoma cell line G3, read-out: IC50 (μM) with doxorubicin (1 μM)). In the data set with lymphoma cell line G3 (lymphoma cell line G3), the “Fold increase in potency over DOX alone” value is recorded as 5.2 fold.

Regarding `CC1=CC(=O)c2ccccc2C1=O` [Menadione, menadione], the half-inhibitory concentration (IC50) in data set [6] (setting [12]) was greater than 32 µM; in data set [6] (setting [13]), 10.9 µM; in data set [7] (setting [12]) it was 4 µM; in [7] (setting [13]), 2 µM. The “Fold increase in potency” value in [6] (with vs without Rifabutin) was greater than 2.9 fold; in [7] it was 2 fold.

`CC(=O)O[C@H]1C(=O)[C@@]2(C)[C@H]([C@H](OC(=O)c3ccccc3)[C@]3(O)C[C@H](OC(=O)[C@H](O)[C@@H](NC(=O)c4ccccc4)c4ccccc4)C(C)=C1C3(C)C)[C@]1(OC(C)=O)CO[C@@H]1C[C@@H]2O` [Paclitaxel, paclitaxel]: the IC50 in data set [8] (setting [12]) is 0.4 µM; in data set [8] (setting [13]), 0.2 µM; with myeloma RPMI 8226 (setting [12]), 1 µM; in the data set on myeloma RPMI 8226 (setting [13]), 0.89 µM. Moreover, the entries for the “Fold increase in potency” value (in data set [8] (with vs without Rifabutin); with myeloma RPMI 8226 (with vs without Rifabutin)) were 2 fold and 1.1 fold, respectively.

For the compound `COc1cc2c(cc1OC)CN(CCc1ccc(NC(=O)c3cccc4c(=O)c5cccc(OC)c5[nH]c34)cc1)CC2` [elacridar], the calcium mobilization entry in the data set with calcium in G3 cells was “induced calcium in a similar manner as RTI-79”. The “total intracellular ROS” value (in data set [9]; in [10]; with ROS in G3 lymphoma cells) was “induced ROS” throughout.

Regarding `O=C1c2c(O)ccc(O)c2C(=O)c2c(NCCNCCO)ccc(NCCNCCO)c21` [Mitoxantrone, mitoxantrone], the IC50 with ovarian cancer OVCAR-8 (setting [12]) came out at 14 µM; in the data set on ovarian cancer OVCAR-8 (setting [13]), 3 µM; in data set [11] (setting [12]), 0.14 µM; in [11] (setting [13]), 0.06 µM; with lymphoma cell line G3 (Homo sapiens, therapeutic drug alone, G3, read-out: IC50) it was 0.46 µM; in the data set on lymphoma cell line G3 (Homo sapiens, therapeutic drug with Rifabutin, G3, read-out: IC50 (μM) with Rifabutin), 0.04 µM. Also, the IC50 in [5] (therapeutic drug alone, SK-OV3, read-out: IC50) was greater than 32 µM; in [5] (therapeutic drug with Rifabutin, SK-OV3, read-out: IC50 (μM) with Rifabutin), 12.3 µM. The “Fold increase in potency” value in the data set with ovarian cancer OVCAR-8 (with vs without Rifabutin) is given as 4.7 fold; in [11] (with vs without Rifabutin) it was 2.3 fold; with lymphoma cell line G3 (with vs without Rifabutin, G3), 11.5 fold; in data set [5] (with vs without Rifabutin, SK-OV3), greater than 2.6 fold.

For the compound `CC[C@@]1(O)C(=O)OCc2c1cc1n(c2=O)Cc2cc3ccccc3nc2-1` [Camptothecin, camptothecin], the figures for the IC50 in data set [7] (setting [12]) and in data set [7] (setting [13]) were 1.13 µM and 0.3 µM, respectively. In addition, the “Fold increase in potency” value in data set [7] stood at 3.8 fold.

Take `COC(=O)[C@H]1[C@H]2C[C@@H]3c4[nH]c5cc(OC)ccc5c4CCN3C[C@H]2C[C@@H](OC(=O)c2cc(OC)c(OC)c(OC)c2)[C@@H]1OC` [reserpine]: the “total intracellular ROS” value (in [9]; in data set [10]; in the data set on ROS in G3 lymphoma cells) was “induced ROS” in each case.
